Results taken from ChEMBL document CHEMBL3407355, “Understanding the importance of glycosylated threonine and stereospecific action of Drosocin, a Proline rich antimicrobial peptide” (Eur J Med Chem, 2015).
Converted amounts (≈) assume the structure as drawn. The source made the active and inactive calls. The rule behind the calls is not given here. Where a SMILES comes first, the peptide text is derived from it. The star is where a group is joined. αGalNAc = CC(=O)N[C@@H]1[C@@H](O)[C@@H](O)[C@@H](CO)O[C@@H]1*; X1 = CC(=O)N[C@H]1[C@H](O)[C@H](O)[C@H](CO)O[C@H]1*

Assays:
Salmonella typhi = assay: Antimicrobial activity against Salmonella typhi Vi+ by broth microdilution assay; type: functional, Salmonella enterica subsp. enterica serovar Typhi; conditions: Salmonella enterica
Escherichia coli [1] = assay: Antimicrobial activity against Escherichia coli ATCC 25922 by broth microdilution assay; type: functional
Escherichia coli [2] = assay: Antimicrobial activity against Escherichia coli ATCC 11775 by broth microdilution assay; type: functional
Escherichia coli [3] = assay: Antimicrobial activity against Escherichia coli ATCC 35218 by broth microdilution assay; type: functional
Salmonella typhimurium = assay: Antimicrobial activity against Salmonella typhimurium ATCC 14028 by broth microdilution assay; type: functional, Salmonella enterica subsp. enterica serovar Typhimurium; conditions: Salmonella enterica
Escherichia coli [4] = assay: Inhibition of protein biosynthesis in Escherichia coli ATCC 25922 assessed as incorporation of [35S]methionine into protein at 10 times of MIC concentration by in-vivo translation assay; type: functional, organism-based
Escherichia coli [5] = assay: Binding affinity to Escherichia coli His-tagged recombinant […] binding domain of DnaK assessed as rate constant by […] Plasmon resonance assay
[6] = Binding affinity to Escherichia coli His-tagged recombinant […] binding domain of DnaK by […] Plasmon resonance assay
Escherichia coli [7] = assay: In-vitro inhibition of luciferase reporter gene translation in Escherichia coli S30 extract at 200 ng by transcription/translation assay; type: functional
Escherichia coli [8] = assay: Drug uptake in Escherichia coli ATCC 25922 assessed as cellular internalization after 30 mins by FACS analysis; type: ADME, organism-based; conditions: in vivo, 0.5 h
Escherichia coli [9] = assay: Inhibition of RNA biosynthesis in Escherichia coli ATCC 25922 assessed as incorporation of [3H]uridine into RNA at 10 times of MIC concentration by in-vivo transcription assay; type: functional, organism-based
Escherichia coli [10] = assay: Inhibition of protein biosynthesis in Escherichia coli ATCC 25922 assessed as incorporation of [35S]methionine into protein at 2.5 ug/300 ul by in-vivo translation assay; type: functional, organism-based

H-GKPRPYSPRPSSHPRPIRV-OH
MIC (Salmonella typhi): 3 µM | MIC (Escherichia coli [1]): 0.4 µM | MIC (Escherichia coli [2]): 0.6 µM | MIC (Escherichia coli [3]): 0.2 µM | MIC (Salmonella typhimurium): 2 µM

CC[C@H](C)[C@H](NC(=O)[C@@H]1CCCN1C(=O)[C@H](CCCNC(=N)N)NC(=O)[C@@H]1CCCN1C(=O)[C@H](Cc1cnc[nH]1)NC(=O)[C@@H]1CCCN1C(=O)[C@@H]1CCCN1C(=O)[C@@H]1CCCN1C(=O)[C@H](CCCNC(=N)N)NC(=O)[C@@H]1CCCN1C(=O)[C@@H]1CCCN1C(=O)[C@H](Cc1ccc(O)cc1)NC(=O)[C@@H]1CCCN1C(=O)[C@H](CCCNC(=N)N)NC(=O)[C@@H]1CCCN1C(=O)[C@H](CCCCN)NC(=O)CN)C(=O)N[C@@H](CCCNC(=N)N)C(=O)N[C@H](C(=O)O)C(C)C
inhibition (Escherichia coli [4]): Active | Ka (Escherichia coli [5]): 2.45 ×10⁴ /M/s | Kdiss (Escherichia coli [5]): 0.0366 s⁻¹ | MIC (Salmonella typhi): 0.6 µM (≈ 1.33 µg/mL) | MIC (Escherichia coli [1]): 0.3 µM (≈ 0.664 µg/mL) | MIC (Escherichia coli [2]): 0.3 µM (≈ 0.664 µg/mL) | Kd [6]: 1.49 µM | inhibition (Escherichia coli [7]): Active | MIC (Escherichia coli [3]): 0.2 µM (≈ 0.443 µg/mL) | MIC (Salmonella typhimurium): 0.6 µM (≈ 1.33 µg/mL)

CC[C@@H](C)[C@@H](NC(=O)[C@H]1CCCN1C(=O)[C@@H](CCCNC(=N)N)NC(=O)[C@H]1CCCN1C(=O)[C@@H](Cc1cnc[nH]1)NC(=O)[C@H]1CCCN1C(=O)[C@H]1CCCN1C(=O)[C@H]1CCCN1C(=O)[C@@H](CCCNC(=N)N)NC(=O)[C@H]1CCCN1C(=O)[C@H]1CCCN1C(=O)[C@@H](Cc1ccc(O)cc1)NC(=O)[C@H]1CCCN1C(=O)[C@@H](CCCNC(=N)N)NC(=O)[C@H]1CCCN1C(=O)[C@@H](CCCCN)NC(=O)CN)C(=O)N[C@H](CCCNC(=N)N)C(=O)N[C@@H](C(=O)O)C(C)C
inhibition (Escherichia coli [4]): inactive | Ka (Escherichia coli [5]): 9.34 ×10⁴ /M/s | Kdiss (Escherichia coli [5]): 0.0137 s⁻¹ | MIC (Salmonella typhi): > 200 µM | MIC (Escherichia coli [1]): > 200 µM | Drug uptake (Escherichia coli [8]): 2% | MIC (Escherichia coli [2]): > 200 µM | inhibition (Escherichia coli [9]): inactive | Kd [6]: 1.47 µM | inhibition (Escherichia coli [7]): Active | MIC (Escherichia coli [3]): > 200 µM | MIC (Salmonella typhimurium): > 200 µM

CC[C@H](C)[C@H](NC(=O)[C@@H]1CCCN1C(=O)[C@H](CCCNC(=N)N)NC(=O)[C@@H]1CCCN1C(=O)[C@H](Cc1cnc[nH]1)NC(=O)[C@H](CO)NC(=O)[C@@H](NC(=O)[C@@H]1CCCN1C(=O)[C@H](CCCNC(=N)N)NC(=O)[C@@H]1CCCN1C(=O)[C@H](CO)NC(=O)[C@H](Cc1ccc(O)cc1)NC(=O)[C@@H]1CCCN1C(=O)[C@H](CCCNC(=N)N)NC(=O)[C@@H]1CCCN1C(=O)[C@H](CCCCN)NC(=O)CN)[C@@H](C)O[C@@H]1O[C@@H](CO)[C@@H](O)[C@@H](O)[C@@H]1NC(C)=O)C(=O)N[C@@H](CCCNC(=N)N)C(=O)N[C@H](C(=O)O)C(C)C (H-GKPRPYSPRPT(X1)SHPRPIRV-OH)
Ka (Escherichia coli [5]): 1.94 ×10⁴ /M/s | Kdiss (Escherichia coli [5]): 0.0297 s⁻¹ | MIC (Salmonella typhi): 1.3 µM (≈ 3.12 µg/mL) | MIC (Escherichia coli [1]): 0.3 µM (≈ 0.721 µg/mL) | Drug uptake (Escherichia coli [8]): 20% | MIC (Escherichia coli [2]): 0.5 µM (≈ 1.2 µg/mL) | Kd [6]: 1.53 µM | MIC (Escherichia coli [3]): 0.2 µM (≈ 0.48 µg/mL) | MIC (Salmonella typhimurium): 1.8 µM (≈ 4.32 µg/mL)

H-GKPRPYSPRPTSHPRPIRV-OH [DROSOCIN]
MIC (Salmonella typhi): 3 µM | MIC (Escherichia coli [1]): 0.5 µM | MIC (Escherichia coli [2]): 0.7 µM | MIC (Escherichia coli [3]): 0.4 µM | MIC (Salmonella typhimurium): 2 µM

CC[C@H](C)[C@H](NC(=O)[C@@H]1CCCN1C(=O)[C@H](CCCNC(=N)N)NC(=O)[C@@H]1CCCN1C(=O)[C@H](Cc1cnc[nH]1)NC(=O)[C@H](CO)NC(=O)[C@@H](NC(=O)[C@@H]1CCCN1C(=O)[C@H](CCCNC(=N)N)NC(=O)[C@@H]1CCCN1C(=O)[C@H](CO)NC(=O)[C@H](Cc1ccc(O)cc1)NC(=O)[C@@H]1CCCN1C(=O)[C@H](CCCNC(=N)N)NC(=O)[C@@H]1CCCN1C(=O)[C@H](CCCCN)NC(=O)CN)[C@@H](C)O[C@H]1O[C@H](CO)[C@H](O)[C@H](O)[C@H]1NC(C)=O)C(=O)N[C@@H](CCCNC(=N)N)C(=O)N[C@H](C(=O)O)C(C)C (H-GKPRPYSPRPT(αGalNAc)SHPRPIRV-OH)
Ka (Escherichia coli [5]): 2.04 ×10⁴ /M/s | Kdiss (Escherichia coli [5]): 0.0366 s⁻¹ | MIC (Salmonella typhi): 0.3 µM (≈ 0.721 µg/mL) | MIC (Escherichia coli [1]): 0.2 µM (≈ 0.48 µg/mL) | Drug uptake (Escherichia coli [8]): 16% | MIC (Escherichia coli [2]): 0.3 µM (≈ 0.721 µg/mL) | Kd [6]: 1.79 µM | MIC (Escherichia coli [3]): 0.2 µM (≈ 0.48 µg/mL) | MIC (Salmonella typhimurium): 0.3 µM (≈ 0.721 µg/mL)

CC[C@H](C)[C@H](NC(=O)[C@@H]1CCCN1C(=O)[C@H](CCCNC(=N)N)NC(=O)[C@@H]1CCCN1C(=O)[C@H](Cc1cnc[nH]1)NC(=O)[C@H](CO)NC(=O)[C@H](CO[C@H]1O[C@H](CO)[C@H](O)[C@H](O)[C@H]1NC(C)=O)NC(=O)[C@@H]1CCCN1C(=O)[C@H](CCCNC(=N)N)NC(=O)[C@@H]1CCCN1C(=O)[C@H](CO)NC(=O)[C@H](Cc1ccc(O)cc1)NC(=O)[C@@H]1CCCN1C(=O)[C@H](CCCNC(=N)N)NC(=O)[C@@H]1CCCN1C(=O)[C@H](CCCCN)NC(=O)CN)C(=O)N[C@@H](CCCNC(=N)N)C(=O)N[C@H](C(=O)O)C(C)C (H-GKPRPYSPRPS(αGalNAc)SHPRPIRV-OH)
MIC (Salmonella typhi): 5 µM (≈ 11.9 µg/mL) | MIC (Escherichia coli [1]): 1.1 µM (≈ 2.63 µg/mL) | MIC (Escherichia coli [2]): 1.6 µM (≈ 3.82 µg/mL) | MIC (Escherichia coli [3]): 0.5 µM (≈ 1.19 µg/mL) | MIC (Salmonella typhimurium): 6 µM (≈ 14.3 µg/mL)

CN(C)[C@@H]1C(O)=C(C(N)=O)C(=O)[C@@]2(O)C(O)=C3C(=O)c4c(O)cccc4[C@@](C)(O)[C@H]3C[C@@H]12
inhibition (Escherichia coli [10]): Active
